According to PubChem BioAssay (NCI):
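Dose response: 5 concentrations. Exposure: 48 h. Format: 96-well plates. Endpoint: linear interpolation; highest concentration if not reached. GI50: concentration for 50% inhibition of growth. TGI denotes the concentration required for complete inhibition of growth.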

What was measured:
Test in all cases: growth of human tumour cells (NCI), 48 h; in the data active = GI50 below about 0.43 µM; inactive = the rest
786-0 renal = tested on: 786-0 renal
A498 renal = tested on: A498 renal
A549 NSCLC = tested on: A549 NSCLC
ACHN renal = tested on: ACHN renal
BT-549 breast = tested on: BT-549 breast
CAKI-1 renal = tested on: CAKI-1 renal
CCRF-CEM leukemia = tested on: CCRF-CEM leukemia
COLO 205 colon = tested on: COLO 205 colon
DU-145 prostate = tested on: DU-145 prostate
EKVX NSCLC = tested on: EKVX NSCLC
HCC-2998 colon = tested on: HCC-2998 colon
HCT-116 colon = tested on: HCT-116 colon
HCT-15 colon = tested on: HCT-15 colon
HOP-62 NSCLC = tested on: HOP-62 NSCLC
HOP-92 NSCLC = tested on: HOP-92 NSCLC
HS 578T breast = tested on: HS 578T breast
HT29 colon = tested on: HT29 colon
IGROV1 ovarian = tested on: IGROV1 ovarian
K-562 leukemia = tested on: K-562 leukemia
KM12 colon = tested on: KM12 colon
LOX IMVI melanoma = tested on: LOX IMVI melanoma
M14 melanoma = tested on: M14 melanoma
MALME-3M melanoma = tested on: MALME-3M melanoma
MCF7 breast = tested on: MCF7 breast
MDA-MB-231 breast = tested on: MDA-MB-231 breast
MDA-MB-435 = tested on: MDA-MB-435
MDA-N = tested on: MDA-N
MOLT-4 leukemia = tested on: MOLT-4 leukemia
NCI-H226 lung = tested on: NCI-H226 lung
NCI-H23 lung = tested on: NCI-H23 lung
NCI-H460 lung = tested on: NCI-H460 lung
NCI-H522 lung = tested on: NCI-H522 lung
NCI/ADR-RES ovarian = tested on: NCI/ADR-RES ovarian
OVCAR-3 ovarian = tested on: OVCAR-3 ovarian
OVCAR-4 ovarian = tested on: OVCAR-4 ovarian
OVCAR-5 ovarian = tested on: OVCAR-5 ovarian
OVCAR-8 ovarian = tested on: OVCAR-8 ovarian
PC-3 prostate = tested on: PC-3 prostate
RPMI-8226 leukemia = tested on: RPMI-8226 leukemia
RXF 393 renal = tested on: RXF 393 renal
SF-268 CNS = tested on: SF-268 CNS
SF-295 CNS = tested on: SF-295 CNS
SF-539 CNS = tested on: SF-539 CNS
SK-MEL-2 melanoma = tested on: SK-MEL-2 melanoma
SK-MEL-28 melanoma = tested on: SK-MEL-28 melanoma
SK-MEL-5 melanoma = tested on: SK-MEL-5 melanoma
SK-OV-3 ovarian = tested on: SK-OV-3 ovarian
SN12C renal = tested on: SN12C renal
SNB-19 CNS = tested on: SNB-19 CNS
SNB-75 CNS = tested on: SNB-75 CNS
SR leukemia = tested on: SR leukemia
SW-620 colon = tested on: SW-620 colon
T-47D breast = tested on: T-47D breast
TK-10 renal = tested on: TK-10 renal
U251 CNS = tested on: U251 CNS
UACC-257 melanoma = tested on: UACC-257 melanoma
UACC-62 melanoma = tested on: UACC-62 melanoma
UO-31 renal = tested on: UO-31 renal
HL-60(TB) leukemia = tested on: HL-60(TB) leukemia

CCCC[C@@H](C)/C=C1\CN2CCC[C@H]2[C@@](C)(OCc2ccccc2)[C@@H]1O
> 18.9 µM: TGI (KM12 colon)
> 50 µM: TGI (786-0 renal) | TGI (A498 renal) | TGI (A549 NSCLC) | TGI (ACHN renal) | TGI (BT-549 breast) | TGI (CAKI-1 renal) | TGI (CCRF-CEM leukemia) | TGI (COLO 205 colon) | TGI (EKVX NSCLC) | TGI (HCC-2998 colon) | TGI (HCT-116 colon) | TGI (HCT-15 colon) | TGI (HOP-92 NSCLC) | TGI (HS 578T breast) | TGI (HT29 colon) | TGI (IGROV1 ovarian) | TGI (K-562 leukemia) | TGI (LOX IMVI melanoma) | TGI (M14 melanoma) | TGI (MALME-3M melanoma) | TGI (MCF7 breast) | TGI (MDA-MB-231 breast) | TGI (MDA-MB-435) | TGI (MDA-N) | TGI (MOLT-4 leukemia) | TGI (NCI-H226 lung) | TGI (NCI-H23 lung) | TGI (NCI-H460 lung) | TGI (NCI-H522 lung) | TGI (NCI/ADR-RES ovarian) | TGI (OVCAR-4 ovarian) | TGI (OVCAR-5 ovarian) | TGI (OVCAR-8 ovarian) | TGI (PC-3 prostate) | TGI (RXF 393 renal) | TGI (SF-268 CNS) | TGI (SF-295 CNS) | TGI (SK-MEL-2 melanoma) | TGI (SK-MEL-28 melanoma) | TGI (SK-MEL-5 melanoma) | TGI (SK-OV-3 ovarian) | TGI (SN12C renal) | TGI (SNB-19 CNS) | TGI (SNB-75 CNS) | TGI (SR leukemia) | TGI (SW-620 colon) | TGI (TK-10 renal) | TGI (U251 CNS) | TGI (UACC-62 melanoma)
> 28.7 µM: TGI (OVCAR-3 ovarian)
18.4 µM: TGI (HOP-62 NSCLC)
> 23.7 µM: TGI (RPMI-8226 leukemia)
> 16.6 µM: TGI (UO-31 renal)
> 46.1 µM: TGI (UACC-257 melanoma)
49.7 µM: TGI (SF-539 CNS)
> 19.3 µM: TGI (DU-145 prostate) | TGI (T-47D breast)

CC1C(NNC(N)=O)Oc2cc3c(cc2C1c1ccccc1O)OCO3 (centres undefined)
74 µM: TGI (SF-539 CNS)
86.3 µM: TGI (SNB-75 CNS)
90.6 µM: TGI (PC-3 prostate)
48 µM: TGI (MDA-MB-435)
58.6 µM: TGI (NCI-H522 lung)
97.2 µM: TGI (MALME-3M melanoma)
35.4 µM: TGI (HL-60(TB) leukemia)
64.1 µM: TGI (K-562 leukemia)
76.2 µM: TGI (SF-295 CNS)
> 100 µM: TGI (A549 NSCLC) | TGI (ACHN renal) | TGI (BT-549 breast) | TGI (CAKI-1 renal) | TGI (DU-145 prostate) | TGI (EKVX NSCLC) | TGI (HCC-2998 colon) | TGI (HCT-15 colon) | TGI (HOP-62 NSCLC) | TGI (HS 578T breast) | TGI (HT29 colon) | TGI (KM12 colon) | TGI (LOX IMVI melanoma) | TGI (M14 melanoma) | TGI (MCF7 breast) | TGI (MDA-MB-231 breast) | TGI (MOLT-4 leukemia) | TGI (NCI-H226 lung) | TGI (NCI-H23 lung) | TGI (NCI-H460 lung) | TGI (OVCAR-3 ovarian) | TGI (OVCAR-5 ovarian) | TGI (SF-268 CNS) | TGI (SK-MEL-2 melanoma) | TGI (SK-MEL-28 melanoma) | TGI (SK-MEL-5 melanoma) | TGI (SK-OV-3 ovarian) | TGI (SN12C renal) | TGI (SNB-19 CNS) | TGI (T-47D breast) | TGI (TK-10 renal) | TGI (U251 CNS) | TGI (UACC-257 melanoma) | TGI (UACC-62 melanoma) | TGI (UO-31 renal)
76.8 µM: TGI (HCT-116 colon)
68.9 µM: TGI (A498 renal)
54.5 µM: TGI (CCRF-CEM leukemia)
86.4 µM: TGI (IGROV1 ovarian)
43.1 µM: TGI (SR leukemia)
50.4 µM: TGI (HOP-92 NSCLC)
84.6 µM: TGI (RXF 393 renal)
76.7 µM: TGI (MDA-N)
32.8 µM: TGI (SW-620 colon)
78.6 µM: TGI (RPMI-8226 leukemia)

CCn1c(=O)c2nc(SC)sc2n(-c2ccc(C)cc2)c1=O
> 81.7 µM: TGI (MALME-3M melanoma)
> 45.2 µM: TGI (M14 melanoma)
> 95.1 µM: TGI (SNB-75 CNS)
> 87.4 µM: TGI (HS 578T breast)
inactive: GI50 (A498 renal) 28.2 µM | GI50 (BT-549 breast) 33 µM | GI50 (CAKI-1 renal) > 100 µM | GI50 (EKVX NSCLC) 71.4 µM | GI50 (UACC-62 melanoma) 41.2 µM
> 100 µM: TGI (A498 renal) | TGI (A549 NSCLC) | TGI (ACHN renal) | TGI (BT-549 breast) | TGI (CAKI-1 renal) | TGI (CCRF-CEM leukemia) | TGI (COLO 205 colon) | TGI (DU-145 prostate) | TGI (EKVX NSCLC) | TGI (HCC-2998 colon) | TGI (HCT-116 colon) | TGI (HCT-15 colon) | TGI (HL-60(TB) leukemia) | TGI (HOP-62 NSCLC) | TGI (HOP-92 NSCLC) | TGI (HT29 colon) | TGI (IGROV1 ovarian) | TGI (K-562 leukemia) | TGI (KM12 colon) | TGI (LOX IMVI melanoma) | TGI (MCF7 breast) | TGI (MDA-MB-231 breast) | TGI (MDA-N) | TGI (MOLT-4 leukemia) | TGI (NCI-H226 lung) | TGI (NCI-H23 lung) | TGI (NCI-H460 lung) | TGI (NCI-H522 lung) | TGI (NCI/ADR-RES ovarian) | TGI (OVCAR-3 ovarian) | TGI (OVCAR-4 ovarian) | TGI (OVCAR-5 ovarian) | TGI (OVCAR-8 ovarian) | TGI (PC-3 prostate) | TGI (RPMI-8226 leukemia) | TGI (RXF 393 renal) | TGI (SF-268 CNS) | TGI (SF-295 CNS) | TGI (SF-539 CNS) | TGI (SK-MEL-2 melanoma) | TGI (SK-MEL-28 melanoma) | TGI (SK-MEL-5 melanoma) | TGI (SK-OV-3 ovarian) | TGI (SN12C renal) | TGI (SNB-19 CNS) | TGI (SR leukemia) | TGI (SW-620 colon) | TGI (T-47D breast) | TGI (TK-10 renal) | TGI (U251 CNS) | TGI (UACC-257 melanoma) | TGI (UACC-62 melanoma) | TGI (UO-31 renal)
